Experimental data reported in patent US4748172A, “3-bicyclicpyridinium-methyl cephalosporins” (Eli Lilly and Company, priority 1987, dated 1988).
In brackets after ≈: the same amount, converted by molar mass.

What was measured:
Assay type in all cases: cell-based
Staph. epi EPI1 = assay: Agar dilution MIC; details: strain EPI1
Klebsiella X68 = assay: Agar dilution MIC
Strep. D 9960 = assay: Agar dilution MIC
Staph. aureus S13E = assay: microbe, parasite or virus in culture; details: Staphylococcus aureus
Staph. aureus X400 = assay: Agar dilution MIC; details: Staphylococcus aureus
Staph. aureus V41 = assay: Agar dilution MIC; details: Staphylococcus aureus, strain V41
Pseudomonas X528 = assay: Agar dilution MIC; details: strain X528
Excerpt: (§1) The antibacterial activity of several representative compounds of the invention has been evaluated in standard in vitro agar dilution assays. The following Table presents typical minimum inhibitory concentrations (MIC's) in μg/ml for exemplary compounds when evaluated against typical Gram+and Gram-microorganism.
(§2) Agar Dilution MIC (μg/ml)

Pseudomonas X239 = assay: Agar dilution MIC; details: strain X239
Excerpt: as §1, §2

Compound `CO/N=C(\C(=O)N[C@@H]1C(=O)N2C(C(=O)[O-])=C(C[n+]3cccc4nc(N)sc43)CS[C@H]12)c1csc(N)n1` [Example 15, syn-7-[2-(2-aminothiazol-4-yl)-2-methoxyiminoacetamido]-3-(2-aminothiazolo[5,4-b]pyridinium-4-ylmethyl)-3-cephem-4-carboxylate] has an MIC (Staph. epi EPI1) of 2 µg/mL (≈ 3.66 µM), an MIC (Klebsiella X68) of 4 µg/mL (≈ 7.32 µM) and an MIC (Strep. D 9960) of 8 µg/mL (≈ 14.6 µM). The MIC (Staph. aureus S13E) was 4 µg/mL (≈ 7.32 µM), the MIC (Staph. aureus X400) was 32 µg/mL (≈ 58.5 µM) and the MIC (Staph. aureus V41) was 2 µg/mL (≈ 3.66 µM). It also gave an MIC (Pseudomonas X528) of 1 µg/mL (≈ 1.83 µM) and an MIC (Pseudomonas X239) of 2 µg/mL (≈ 3.66 µM).
